Test results taken from patent publication US11472771B2, “Process for making amino diaryl ethers and amino diaryl ethers hydrochloride salts” (CELLESTIA BIOTECH AG, priority 2018, dated 2022).
Converted amounts (≈) assume the structure as drawn.

How the values were obtained:
[1] = Solubility in water at various pH-values; type: physicochemical; conditions: for pH solution / soluble / calculated concentration charged: 500 mg in 14 ml; for soluble: conc. 33.33 mg/mL; for calculated concentration charged: not soluble
Protocol: The solubilities in water of 6-(4-(tert-butyl)phenoxy)pyridin-3-amine (formula (Ia)) and the monohydrochloride salt thereof, i.e. 6-(4-(tert-butyl)phenoxy)pyridin-3-amine monohydrochloride, were assessed at various pH-values according to Tables 3 and 4. The solubility in water of 6-(4-(tert-butyl)phenoxy)pyridin-3-amine (formula (Ia)) according to Table 3 was assayed as follows: Free base 500 mg were charged into 14 mL of acidic media at pH=2, 4, at neutral pH=7 and basic pH=10 to afford suspensions within calculated concentration of appr. 35 mg/mL. The solubility in water of 6-(4-(tert-butyl)phenoxy)pyridin-3-amine monohydrochloride according to Table 4 was assayed as follows: HCl salt 100 mg each were charged into acidic media at pH=2 and 4 and neutral media pH=7 to furnish solutions. Most important observation was to that at a neutral solution at pH=7 drops down to pH=1 by charging HCl salt 100 mg.

[2] = Solubility in water at various pH-values; type: physicochemical; conditions: aqueous buffer, thermodynamic from solid; in 0.01% HCl; 100 mg in 190 mL; read-out: solubility limit
[3] = 15% acetic acid soln., pH solvent 2

CC(C)(C)c1ccc(Oc2ccc(N)cn2)cc1 [6-(4-(tert-butyl)phenoxy)pyridin-3-amine]
pH solution [1, 3]: 2
soluble [1, 3]: no
calculated concentration charged [1, 3]: 33.33 mg/mL
pH solution ([1]; Fluke 33643 (pH = 4)): 4
soluble ([1]; Fluke 33643 (pH = 4)): no
calculated concentration charged ([1]; Fluke 33643 (pH = 4)): 33.33 mg/mL
pH solution ([1]; Fluke 33646 (pH = 7)): 7
soluble ([1]; Fluke 33646 (pH = 7)): no
calculated concentration charged ([1]; Fluke 33646 (pH = 7)): 33.33 mg/mL
pH solution ([1]; Fluke 33649 (pH = 10)): 10
soluble ([1]; Fluke 33649 (pH = 10)): no
calculated concentration charged ([1]; Fluke 33649 (pH = 10)): 33.33 mg/mL
solubility in water ([1]; water, in words): very poorly soluble
solubility [2]: 530 µg/mL (≈ 2190 µM)
